Source: patent US20090118225A1, “1-Methyl Nicotinamide and Derivatives for Treatment of Gastric Injury” (Cortria Corporation, priority 2007, published 2009)

Experiments:
[1] = tested on: WRS-induced gastric lesions; test: Water immersion and restraint stress (WRS)-induced gastric lesion model; assay type: in vivo, Male Wistar rats; settings: for effect on the protection by 1-MNA with respect to gastric lesions / effect on the protective property of 1-MNA as measured by mean lesion number and plasma levels of IL-1β and TNFα: COX inhibitor pretreatment plus 1-MNA; for lesion numbers after COX inhibitor pretreatment before 1-MNA and WRS: indomethacin 5 mg/kg i.p., SC-560 5 mg/kg i.g. or rofecoxib 10 mg/kg i.g., versus absence of inhibitor; for effect on gastroprotection and the accompanying rise in the GBF induced by 1-MNA: summary of inhibitor experiments
Method: (§1) Male Wistar rats, weighing 180-220 grams were fasted for 24 hours before subjecting to experimentation were employed in all studies. The animals were divided into groups for the following types of induced gastric lesions: ethanol-; aspirin (acetylsalicylic acid; ASA)-; stress-; and ischemia-reperfusion (I/R)-induced gastric lesions. In the first group, gastric lesions were produced by intragastric (i.g.) application of ethanol (75%), in the second group by i.g. application of acidified ASA (125 mg/kg), in the third group by animal exposure to 3.5 hours of water immersion (and restraint stress (WRS), in the fourth group by ischemia (by clamping celiac artery for 30 minutes followed by release of the clamp (reperfusion for 3 hours) (I/R).
(§2) The following experiments were designed to assess the therapeutic effect of 1-MNA on induced gastric lesions.
(§3) To assess gastric blood flow (GBF) laser Doppler flowmeter (Laserflo, model BPM 403A, Blood Perfusion Monitor, Vasamedics, St. Paul, Minn., USA) was used. The animals were anaesthetized with Vetbutal 50 mg/kg (Biowet, Pu^3awy, Poland), then the abdomen was opened and the stomach was exposed to assess the GBF. Blood flow was measured on anterior and posterior wall of stomach. The mean values of these measurements were calculated and expressed as percent change from value recorded in the intact mucosa.
(§4) To establish the number and area of gastric lesions, computerized planimetry (Morphomat, Carl Zeiss, Berlin, Germany) was used. Results are expressed as mm.
(§5) A venous blood sample was withdrawn from the vena cava into EDTA-containing vials in order to determine the plasma level of interleukin-1 beta (IL-1β) and tumor necrosis factor alpha (TNFα) by ELISA technique (BioSource International, Camarillo, Calif., USA).

[2] = tested on: I/R-induced gastric lesions; test: Ischemia-reperfusion (I/R)-induced gastric lesion model; assay type: in vivo, Male Wistar rats
Method: as §1, §2, §3, §4

[3] = tested on: ethanol-induced gastric lesions; test: Ethanol-induced gastric lesion model; assay type: in vivo, Male Wistar rats
Method: as §1, §2, §3, §4

gastric acid output = test: Gastric acid output in rats having chronic gastric fistula (GF); assay type: in vivo
Method: The following experiments were designed to compare the effects of pretreatment with vehicle and 1-MNA or NA on stress-induced gastric lesions and the accompanying changes in gastric blood flow (GBF) and gastric tissue activities of MDA and SOD and plasma pro-inflammatory cytokine IL-1β and TNF-α levels. These sets of experiments were based on the observation that 1-MNA was able to reduce the gastric output in rats having chronic gastric fistula (GF). Rats with chronic GF were administered with 1-MNA, NA, or a vehicle control.

[4] = tested on: ASA-induced gastric lesions; test: Acidified ASA-induced gastric lesion model; assay type: in vivo, Male Wistar rats
Method: as §1, §2, §3, §4
For lipid peroxydation in investigated groups, the determination of the levels of malondialdehyde (MDA) and 4 hydroxynonenal (4-HNE) was carried out and their levels were used as indicators of lipid peroxidation. The procedure of MDA and 4-HNE determination was following: 600 mg of gastric mucosa was excised. Then […] 0.5 M BHT (butylated hydroxytoluene) was added in order to prevent sample oxidation. This sample was subsequently homogenized in 20 mM Tris for 15 sec. in pH 7.4. The homogenate was centrifuged (3,000 g at 4° C. for 10 minutes). Obtained clear supernatant was stored at −80° C. prior to testing. The colorimetric assay for lipid peroxidation (Bioxytech LPO-586, Oxis, Portland, USA) was used to determine the MDA and 4-HNE tissue concentration. This assay is based on the reaction of a chromogenic reagent N-methyl-2-phenylindole with MDA and 4-HNE at 45° C. This reaction yields a stable chromophore with maximal absorbance at 586 nm. This absorbance was measured by spectrophotometer Marcel s300, Warsaw, Poland. Results were expressed as nanomole per gram of tissue (nmol/g).
To determine activity of superoxide dismutase (SOD), a sample of gastric mucosa was taken, as described above. The calorimetric assay for assessment of SOD activity (Bioxytech, SOD-525, Oxis, Portland, USA) was used. This method is based on the SOD-mediated increase in the rate of autooxidation of tetrahydrobenzofluorene in aqueous alkaline solution to yield a chromophore with maximum absorbance at 525 nm. This absorbance was measured by spectrophotometer Marcel s300, Warsaw, Poland. Outcomes were expressed as units per gram of tissue (U/g).
The next set of experiments were designed to measure myeloperoxidase (MPO), malondialdehyde (MDA) and 4-hydroxynonenal (4-HNE), and superoxide dismutase (SOD) activities in rat stomach exposed to acidified ASA as indicators of the prognosis of gastric mucosa injury. To evaluate the inflammatory changes, myeloperoxidase (MPO) activity in the gastric mucosa was measured. MPO activity was measured by enzyme assay. MDA and 4-HNE in tissue are accepted as major products of lipid peroxidation and thus are considered as indicators of mucosa injury by reactive oxygen species (ROS). Organisms have several enzymatic systems that scavenge ROS and prevent their destructive action. The major antioxidative enzyme is superoxide dismutase (SOD).

acetic acid ulcer = test: Acetic acid ulcer area and GBF in rats with and without rofecoxib; assay type: in vivo
Text: The following experiments were designed to assess the effects of 1-MNA on acetic acid ulcer area and GBF in rats administered with and without a selective COX-2 inhibitor (e.g., rofecoxib).

[5] = tested on: diabetes and stress-induced gastric damage; test: Combined diabetes and stress-induced gastric damage model; assay type: in vivo, rats
Text: as §5
The next set of experiments was designed to assess the therapeutic effects of 1-MNA in a combined diabetic and stress-induced gastric damage model.
Insulin-dependent diabetes exerts various influences on gastric functions, such as acid secretion and gastric emptying. It has observed that aggravation of gastric mucosal ulcerogenic responses occurs in diabetic rats. Furthermore, deleterious influence of diabetes on the healing of gastric mucosal lesions has been observed in diabetic rats.

[6] = WRS, administration of 16,16-dimethyl PGE2
[7] = acidified ASA 125 mg/kg i.g., pretreatment
[8] = comparison of protective properties
[9] = WRS 3.5 hours, pretreatment 30 minutes prior
[10] = ethanol (75%) i.g., pretreatment
[11] = ischemia 30 minutes, reperfusion 3 hours, pretreatment

Molecule: COc1ccc2c(c1)c(CC(=O)O)c(C)n2C(=O)c1ccc(Cl)cc1 [indomethacin]
- effect on the protection by 1-MNA with respect to gastric lesions ([1]; WRS): significantly inhibited the protection by 1-MNA
- effect on the protective property of 1-MNA as measured by mean lesion number and plasma levels of IL-1β and TNFα ([1]; WRS): significantly inhibited the protective property of 1-MNA
- lesion numbers after COX inhibitor pretreatment before 1-MNA and WRS [1]: increase of lesion numbers
- effect on gastroprotection and the accompanying rise in the GBF induced by 1-MNA [1]: significantly attenuated

Molecule: COc1cc(CNC(=O)CCCC/C=C/C(C)C)ccc1O [capsaicin]
- effect of capsaicin denervation on the protection induced by 1-MNA with respect to gastric lesions ([1]; WRS, capsaicin 125 mg/kg s.c.): significantly inhibit the protection induced by 1-MNA
- effect on gastroprotection and the accompanying rise in the GBF induced by 1-MNA [1]: significantly attenuated

Molecule: CCCCC(C)(C)[C@H](O)/C=C/[C@H]1[C@H](O)CC(=O)[C@@H]1C/C=C\CCCC(=O)O [16,16-dimethyl PGE2]
- gastric damage induced by either indomethacin, SC-560, or rofecoxib [1, 6]: successful in preventing the gastric damage
- mean lesion number [1, 6]: sufficient to decrease the mean lesion number

Molecule: COc1ccc(-n2nc(C(F)(F)F)cc2-c2ccc(Cl)cc2)cc1 [SC-560]
- effect on the protection by 1-MNA with respect to gastric lesions ([1]; WRS): significantly inhibited the protection by 1-MNA
- effect on the protective property of 1-MNA as measured by mean lesion number and plasma levels of IL-1β and TNFα ([1]; WRS): significantly inhibited the protective property of 1-MNA
- effect on gastroprotection and the accompanying rise in the GBF induced by 1-MNA [1]: significantly attenuated

Molecule: calcitonin gene related peptide [CGRP]
- effect on the deleterious effects of capsazepine ([1]; WRS, addition of CGRP): counter the deleterious effects of casazepine
- effect on the deleterious effects of capsaicin-induced denervation ([1]; WRS, addition of CGRP to 1-MNA in denervated rats): counteracted the deleterious effects of capsaicin-induced denervation

Molecule: N=C(NCCC[C@H](N)C(=O)O)N[N+](=O)[O-] [L-NNA, NG-nitro-L-arginine, reference compound]
- effect on the therapeutic effects of 1-MNA on gastric lesions ([2]; L-NNA 20 mg/kg i.p.): reverse the therapeutic effects of 1-MNA

Molecule: CS(=O)(=O)c1ccc(C2=C(c3ccccc3)C(=O)OC2)cc1 [rofecoxib]
- effect on the protection by 1-MNA with respect to gastric lesions ([1]; WRS): significantly inhibited the protection by 1-MNA
- effect on the protective property of 1-MNA as measured by mean lesion number and plasma levels of IL-1β and TNFα ([1]; WRS): significantly inhibited the protective property of 1-MNA
- lesion numbers after COX inhibitor pretreatment before 1-MNA and WRS [1]: increase of lesion numbers
- effect on gastroprotection and the accompanying rise in the GBF induced by 1-MNA [1]: significantly attenuated
- number of lesions after COX inhibitor pretreatment in the absence of 1-MNA ([3]; indomethacin 5 mg/kg i.p., SC-560 5 mg/kg i.g. or rofecoxib 10 mg/kg i.g., versus no inhibitor): increased the number of lesions

Molecule: Oc1cc2c(cc1O)CN(C(=S)NCCc1ccc(Cl)cc1)CCC2 [capsazepine]
- effect on the protective property of 1-MNA as measured by mean lesion number and gastric blood flow ([1]; WRS, capsazepine 5 mg/kg s.c.): reduced the protective property of 1-MNA
- effect on gastroprotection and the accompanying rise in the GBF induced by 1-MNA [1]: significantly attenuated

Molecule: C[n+]1cccc(C(N)=O)c1 [1-MNA, 1-methyl nicotinamide]
- dose dependence of the ability to inhibit gastric output (gastric acid output): increased with increasing dosage
- suppression of gastric acid output compared with NA (gastric acid output; 1-MNA versus NA): more effectively than NA
- gastric acid output (gastric acid output; 1-MNA, NA or vehicle control): decrease the gastric acid output
- increase of gastric blood flow compared with NA ([4]; 1-MNA versus NA): more effectively than NA
- reduction of lesion number compared with NA ([4]; 1-MNA versus NA): more effectively than NA
- levels of 4-HNE in gastric mucosa ([4]; ASA-induced lesions): decreasing
- levels of MDA in gastric mucosa ([4]; ASA-induced lesions): decreasing
- levels of MPO in gastric mucosa ([4]; ASA-induced lesions): lowering the levels of MPO
- levels of SOD in gastric mucosa ([4]; ASA-induced lesions): increasing the levels of SOD
- gastric blood flow [4, 7]: increased gastric blood flow
- lesion number [4, 7]: decreased lesion number
- increasing GBF, compared with ranitidine, NO-ASA and SIN-1 [4, 8]: equally effective
- increasing luminal NO, compared with ranitidine, NO-ASA and SIN-1 [4, 8]: equally effective
- reducing mean lesion number, compared with ranitidine, NO-ASA and SIN-1 [4, 8]: equally effective
- gastric blood flow [1, 9]: increased gastric blood flow
- lesion number [1, 9]: decreased lesion number
- plasma level of IL-1β ([1]; WRS model): decrease the plasma levels
- plasma level of TNFα ([1]; WRS model): decrease the plasma levels
- reduction of lesion number compared with NA ([1]; WRS, 1-MNA versus NA): more effectively than NA
- gastric blood flow [3, 10]: increased gastric blood flow
- lesion number [3, 10]: decreased lesion number
- increase of gastric blood flow compared with NA ([3]; ethanol model, 1-MNA versus NA): more effectively than NA
- reduction of lesion number compared with NA ([3]; ethanol model, 1-MNA versus NA): more effectively than NA
- mean lesion number in animals pretreated with either indomethacin, SC-560, or rofecoxib ([3]; ethanol model, presence of 1-MNA): significantly reduced
- GBF in the ulcer area (acetic acid ulcer; rats given rofecoxib): increase the GBF in the ulcer area
- ulcer area (acetic acid ulcer; rats given rofecoxib): reduce the ulcer area in rats given rofecoxib
- GBF in the ulcer area (acetic acid ulcer; without rofecoxib): increase the GBF in the ulcer area
- ulcer area (acetic acid ulcer; without rofecoxib): reduce the ulcer area
- mean lesion number [5]: reduce mean lesion number
- plasma level of IL-1β [5]: decrease
- plasma level of TNFα [5]: decrease
- gastric blood flow [2, 11]: increased gastric blood flow
- lesion number [2, 11]: decreased lesion number
